IC50 data for 20 molecules are collected here from patent US20230117470A1, “SUBSTITUTED PYRAZOLE COMPOUNDS AS TOLL RECEPTOR INHIBITORS” (BRISTOL-MYERS SQUIBB COMPANY, priority 2019, published 2023).

Common to all, as to format: cell-based
The target in one assay is T1, human TLR7 (Homo sapiens, UniProt Q9NYK1).
T1 construct: host or cells: HEK-Blue cells
T1 sequence (Q9NYK1 27-1049): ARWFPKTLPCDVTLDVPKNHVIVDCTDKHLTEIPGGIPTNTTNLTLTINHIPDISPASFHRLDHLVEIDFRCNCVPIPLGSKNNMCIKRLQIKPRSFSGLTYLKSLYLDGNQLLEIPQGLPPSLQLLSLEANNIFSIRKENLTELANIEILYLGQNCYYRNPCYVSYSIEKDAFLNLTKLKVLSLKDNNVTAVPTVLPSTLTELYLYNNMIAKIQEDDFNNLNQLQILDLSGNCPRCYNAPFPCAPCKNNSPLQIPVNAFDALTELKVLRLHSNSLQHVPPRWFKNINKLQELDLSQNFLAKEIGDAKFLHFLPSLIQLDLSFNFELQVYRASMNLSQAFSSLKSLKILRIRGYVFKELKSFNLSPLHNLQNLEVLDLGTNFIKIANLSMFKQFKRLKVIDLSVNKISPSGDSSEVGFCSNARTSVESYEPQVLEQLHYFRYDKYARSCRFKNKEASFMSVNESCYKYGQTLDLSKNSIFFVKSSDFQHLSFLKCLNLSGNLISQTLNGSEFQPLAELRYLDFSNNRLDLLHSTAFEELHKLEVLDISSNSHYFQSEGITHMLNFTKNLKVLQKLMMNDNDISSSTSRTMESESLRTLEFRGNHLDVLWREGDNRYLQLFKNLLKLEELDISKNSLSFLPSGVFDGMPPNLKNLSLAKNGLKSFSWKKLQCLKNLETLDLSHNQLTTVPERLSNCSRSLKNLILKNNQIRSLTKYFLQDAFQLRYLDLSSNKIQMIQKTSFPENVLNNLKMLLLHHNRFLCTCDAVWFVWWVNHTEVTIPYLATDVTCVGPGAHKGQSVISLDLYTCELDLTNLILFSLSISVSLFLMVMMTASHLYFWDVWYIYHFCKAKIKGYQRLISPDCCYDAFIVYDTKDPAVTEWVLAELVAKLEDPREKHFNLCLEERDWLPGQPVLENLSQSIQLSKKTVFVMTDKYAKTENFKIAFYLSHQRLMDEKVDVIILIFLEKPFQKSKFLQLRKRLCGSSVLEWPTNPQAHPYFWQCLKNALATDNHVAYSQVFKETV
Description: TLR7 inhibition reporter assay (HEK-Blue cells, SEAP reporter, gardiquimod stimulation). As to conditions: HEK-Blue cells overexpressing human TLR7, SEAP reporter, gardiquimod 7.5 μM. The procedure, abridged: (§1)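 Ligand levels differed by receptor: TLR7 got gardiquimod at 7.5 μM, TLR8 got R848 at 15.9 μM, and TLR9 got ODN2006 at 5 nM, each added after a 30-min room-temperature compound exposure. Incubation lasted 22 h at 37° C before colorimetric SEAP detection.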
A general note: A reporter such as luciferase makes a cellular process visible.

The target in another assay is T2, human TLR8 (Homo sapiens, UniProt Q9NR97).
T2 construct: host or cells: HEK-Blue cells
T2 sequence (Q9NR97 27-1041): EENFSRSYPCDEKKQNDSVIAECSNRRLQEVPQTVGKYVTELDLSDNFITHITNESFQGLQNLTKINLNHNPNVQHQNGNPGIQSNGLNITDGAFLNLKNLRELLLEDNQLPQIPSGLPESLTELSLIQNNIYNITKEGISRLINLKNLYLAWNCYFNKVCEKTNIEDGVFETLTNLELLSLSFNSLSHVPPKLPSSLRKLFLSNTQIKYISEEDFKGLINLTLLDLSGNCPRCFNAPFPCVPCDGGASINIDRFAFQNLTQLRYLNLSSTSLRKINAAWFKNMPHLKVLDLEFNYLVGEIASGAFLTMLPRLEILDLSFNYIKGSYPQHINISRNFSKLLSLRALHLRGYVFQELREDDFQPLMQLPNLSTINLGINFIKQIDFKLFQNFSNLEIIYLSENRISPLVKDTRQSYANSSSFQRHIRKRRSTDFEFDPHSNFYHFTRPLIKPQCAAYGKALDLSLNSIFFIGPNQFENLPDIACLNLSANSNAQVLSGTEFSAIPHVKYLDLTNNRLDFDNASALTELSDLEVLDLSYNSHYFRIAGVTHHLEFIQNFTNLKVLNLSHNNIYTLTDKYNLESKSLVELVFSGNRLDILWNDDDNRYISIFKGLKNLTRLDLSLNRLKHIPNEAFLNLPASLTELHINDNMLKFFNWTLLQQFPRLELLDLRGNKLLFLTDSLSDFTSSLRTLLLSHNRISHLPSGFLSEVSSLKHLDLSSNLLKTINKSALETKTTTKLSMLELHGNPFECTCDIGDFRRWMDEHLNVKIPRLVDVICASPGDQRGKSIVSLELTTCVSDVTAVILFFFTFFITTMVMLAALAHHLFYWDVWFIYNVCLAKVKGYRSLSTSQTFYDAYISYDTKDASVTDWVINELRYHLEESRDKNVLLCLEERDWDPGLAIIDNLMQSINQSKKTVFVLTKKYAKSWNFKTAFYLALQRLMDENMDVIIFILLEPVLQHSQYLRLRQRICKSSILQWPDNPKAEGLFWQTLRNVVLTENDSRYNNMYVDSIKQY
Description: TLR8 inhibition reporter assay (HEK-Blue cells, SEAP reporter, R848 stimulation). The note with it: HEK-Blue cells overexpressing human TLR8, SEAP reporter, R848 15.9 μM. The essentials:
as §1

A further assay deals with T3, human TLR9 (Homo sapiens, UniProt Q9NR96).
T3 construct: host or cells: HEK-Blue cells
T3 sequence (Q9NR96 26-1032): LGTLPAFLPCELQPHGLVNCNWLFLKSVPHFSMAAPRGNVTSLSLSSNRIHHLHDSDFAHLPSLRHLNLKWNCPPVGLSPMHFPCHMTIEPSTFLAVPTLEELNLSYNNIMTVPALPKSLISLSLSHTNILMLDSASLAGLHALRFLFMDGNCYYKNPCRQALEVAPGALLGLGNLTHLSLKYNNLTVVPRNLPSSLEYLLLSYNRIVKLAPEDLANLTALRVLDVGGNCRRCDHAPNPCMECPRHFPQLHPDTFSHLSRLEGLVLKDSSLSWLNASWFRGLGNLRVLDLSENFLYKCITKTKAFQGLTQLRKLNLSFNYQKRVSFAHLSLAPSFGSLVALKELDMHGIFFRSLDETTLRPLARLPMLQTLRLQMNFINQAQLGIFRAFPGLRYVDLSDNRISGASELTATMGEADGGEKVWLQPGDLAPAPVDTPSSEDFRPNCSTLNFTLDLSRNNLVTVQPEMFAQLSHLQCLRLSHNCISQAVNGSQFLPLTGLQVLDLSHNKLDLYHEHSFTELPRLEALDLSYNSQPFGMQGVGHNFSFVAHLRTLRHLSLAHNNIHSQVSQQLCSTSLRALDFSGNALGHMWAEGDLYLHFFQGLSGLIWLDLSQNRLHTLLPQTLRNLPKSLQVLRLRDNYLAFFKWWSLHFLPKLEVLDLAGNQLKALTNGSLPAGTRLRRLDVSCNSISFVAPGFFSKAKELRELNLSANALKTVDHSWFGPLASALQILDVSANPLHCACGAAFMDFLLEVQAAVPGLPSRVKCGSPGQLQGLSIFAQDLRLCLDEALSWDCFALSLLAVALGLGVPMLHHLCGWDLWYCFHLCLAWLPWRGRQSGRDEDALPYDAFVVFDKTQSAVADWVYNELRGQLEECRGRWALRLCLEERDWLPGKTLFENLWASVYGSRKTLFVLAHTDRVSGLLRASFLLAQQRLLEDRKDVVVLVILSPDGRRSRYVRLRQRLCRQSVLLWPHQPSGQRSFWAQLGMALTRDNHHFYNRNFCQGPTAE
Description: TLR9 inhibition reporter assay (HEK-Blue cells, SEAP reporter, ODN2006 stimulation). As to conditions: HEK-Blue cells overexpressing human TLR9, SEAP reporter, ODN2006 5 nM. The procedure, abridged:
as §1

One may read the IC50 as the concentration that gives 50% inhibition. For the molecule `CCN1CCC(c2ccc(-c3n[nH]c(-c4cc(OC)c5ncnn5c4)c3C(C)C)nc2)CC1` [Example 347, 6-(3-(5-(1-ethylpiperidin-4-yl)pyridin-2-yl)-4-isopropyl-1H-pyrazol-5-yl)-8-methoxy-[1,2,4]triazolo[1,5-a]pyridine], the IC50 on human TLR7 was 22.9 nM; on human TLR8, 44.5 nM; on human TLR9, above 50 µM.

On to `Cc1c(C(=O)NC2CCN(C(C)C)CC2)n[nH]c1-c1cc(C)c2ncnn2c1` [Example 179, N-(1-isopropylpiperidin-4-yl)-4-methyl-5-(8-methyl-[1,2,4]triazolo[1,5-a]pyridin-6-yl)-1H-pyrazole-3-carboxamide], for which the IC50 amounted to 9.72 nM at human TLR7, 13.5 nM at human TLR8 and 7.26 µM against human TLR9.

For `Cc1cc(-c2[nH]nc(-c3cccnc3)c2C(C)C)cn2ncnc12` [Example 224], the IC50 stood at 0.56 nM at human TLR7, 0.63 nM against human TLR8 and 9.03 µM against human TLR9.

Consider `Cc1cc(-c2[nH]nc(C(=O)N[C@H]3CC[C@@H](N(CCC(C)C)CCC(C)C)CC3)c2C(C)C)cn2ncnc12` [Example 91], for which the IC50 on human TLR7 amounted to 4.01 nM; against human TLR8, 8.12 nM; against human TLR9, 6.72 µM.

In the case of `CC(=O)N1CCc2nc(-c3n[nH]c(-c4cc(C)c5ncnn5c4)c3C(C)C)sc2C1` [Example 276], the IC50 at human TLR7 was 975 nM; against human TLR8 it was above 3130 nM; against human TLR9 it was above 50 µM.

With `Cc1cc(-c2[nH]nc(C(=O)N[C@@H]3CCCN(C)C3)c2C(C)C)cn2ncnc12` [Example 160], the IC50 at human TLR7 is 0.61 nM; against human TLR8, 0.06 nM; on human TLR9 it was 5.3 µM.

Turning to `Cc1cc(-c2[nH]nc(C(=O)NC[C@@H]3CCCN3)c2C(C)C)cn2ncnc12` [Example 51], the values for the IC50 against human TLR7, against human TLR8 and against human TLR9 were 1.59 nM, 1.03 nM and 8.8 µM, respectively.

In the case of `Cc1cc(-c2[nH]nc(C3CCN(C)CC3)c2C(C)C)cn2ncnc12` [Example 206, 6-(4-isopropyl-3-(1-methylpiperidin-4-yl)-1H-pyrazol-5-yl)-8-methyl-[1,2,4]triazolo[1,5-a]pyridine], the half-inhibitory concentration (IC50) came to 2.27 nM against human TLR7, 0.64 nM at human TLR8 and 12.6 µM against human TLR9.

Consider `Cc1cc(-c2[nH]nc(-c3ccc(C4CCN(C)CC4)nc3)c2C(C)C)cn2ncnc12` [Example 359], for which the values for the IC50 against human TLR7, on human TLR8 and on human TLR9 were 1120 nM, above 3130 nM and above 50 µM, respectively.

For the molecule `Cc1cc(-c2[nH]nc(-c3ncc(C4CCN(C)CC4)cn3)c2C(C)C)cn2ncnc12` [Example 368], the results for the IC50 against human TLR7, on human TLR8 and at human TLR9 were 10.5 nM, 28.1 nM and 5.46 µM, respectively.

In the case of `COc1cc(-c2[nH]nc(-c3cnc(C4CCN(CC5CCC5)CC4)cn3)c2C(C)C)cn2ncnc12` [Example 377], the IC50 on human TLR7 was 56.9 nM; against human TLR8, 18.2 nM; at human TLR9, above 50 µM.

In the case of `Cc1cc(-c2[nH]nc(-c3cccc(NC(C)C)c3)c2C(C)C)cn2ncnc12` [Example 242], the IC50 on human TLR7 was 47.1 nM; on human TLR8, 16.1 nM; against human TLR9, above 50 µM.

On to `Cc1cc(-c2[nH]nc(C(=O)N[C@H]3CC[C@H](NCC4CCOCC4)CC3)c2C(C)C)cn2ncnc12` [Example 111], for which the IC50 against human TLR7 worked out at 2.97 nM; against human TLR8 it was 33.7 nM; against human TLR9, 3.93 µM.

On to `Cc1cc(-c2[nH]nc(-c3ccc4c(c3)CCN(CC(C)(C)O)C4)c2C(C)C)cn2ncnc12` [Example 264], for which the IC50 against human TLR7 came out at 26.8 nM; at human TLR8 it was 22.9 nM; against human TLR9, 22 µM.

On to `COc1cc(-c2[nH]nc(-c3ccc(C4CCN(C)CC4)cn3)c2C(C)C)cn2ncnc12` [Example 348], for which the IC50 against human TLR7 was 19.1 nM; on human TLR8, 22.4 nM; against human TLR9, above 50 µM.

As for `Cc1cc(-c2[nH]nc(C(=O)N(C)C)c2C(C)C)cn2ncnc12` [Example 31], the IC50 against human TLR7 was 3.98 nM; on human TLR8, 3.02 nM; against human TLR9, above 50 µM.

In the case of `Cc1cc(-c2[nH]nc(C(=O)N3CCC(C(N)=O)CC3)c2C(C)C)cn2ncnc12` [Example 15], the half-inhibitory concentration (IC50) was 4.15 nM at human TLR7, 3.14 nM on human TLR8 and 7.81 µM at human TLR9.

In the case of `Cc1cc(-c2[nH]nc(C(=O)N[C@H]3CC[C@H](NCc4cncnc4)CC3)c2C(C)C)cn2ncnc12` [Example 113], the IC50 at human TLR7 is 1.09 nM; at human TLR8, 27.1 nM; against human TLR9 it was 7.8 µM.

With `CCC(CC)N[C@H]1CC[C@@H](NC(=O)c2n[nH]c(-c3cc(C)c4ncnn4c3)c2C(C)C)CC1` [Example 100], the IC50 at human TLR7 amounted to 78.9 nM; against human TLR8 it was 114 nM; at human TLR9, 6.4 µM.

Consider `CNCc1n[nH]c(-c2cc(C)c3ncnn3c2)c1C(C)C` [Example 185], for which the IC50 against human TLR7 was 7.42 nM; against human TLR8, 3.38 nM; at human TLR9, 23 µM.
